Measurements published in patent US20240317748A1, “CARBONYL SUBSTITUTED DIAZASPIRO COMPOUNDS AND ITS USE” (BIONOVA PHARMACEUTICALS (SHANGHAI) LIMITED, priority 2021, published 2024).
Like-named read-outs stand apart in the source and are kept apart here.

What was measured:
[1] = biological target: T1, Menin-MLL1 (Homo sapiens, UniProt O00255); assay: Menin-MLL1 inhibition assay (fluorescence polarization, Menin protein + FAM-MLL peptide); format: binding; conditions: Menin (2-610) isoform 2, FAM-labelled MLL peptide, mP readout; read-out: Biochemical assay Menin-MLL1 IC50
T1 construct: Menin (2-610) isform2; purchased ChemPartner 2020111101
T1 sequence (O00255 2-610): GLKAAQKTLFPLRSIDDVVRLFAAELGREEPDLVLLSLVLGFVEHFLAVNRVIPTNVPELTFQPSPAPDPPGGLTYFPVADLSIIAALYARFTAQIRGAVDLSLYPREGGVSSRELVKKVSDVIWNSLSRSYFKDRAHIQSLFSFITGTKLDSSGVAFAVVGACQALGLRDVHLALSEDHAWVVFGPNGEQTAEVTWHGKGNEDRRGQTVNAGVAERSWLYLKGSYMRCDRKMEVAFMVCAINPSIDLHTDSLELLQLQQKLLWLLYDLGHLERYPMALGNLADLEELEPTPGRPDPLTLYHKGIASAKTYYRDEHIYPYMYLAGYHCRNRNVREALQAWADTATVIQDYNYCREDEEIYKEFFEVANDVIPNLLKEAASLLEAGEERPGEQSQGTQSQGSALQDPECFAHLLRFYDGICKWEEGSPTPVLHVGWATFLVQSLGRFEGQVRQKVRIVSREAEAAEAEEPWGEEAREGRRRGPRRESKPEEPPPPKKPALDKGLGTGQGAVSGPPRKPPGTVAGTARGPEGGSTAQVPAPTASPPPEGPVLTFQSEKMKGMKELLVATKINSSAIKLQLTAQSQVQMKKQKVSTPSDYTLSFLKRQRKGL

[2] = tested on: MV-4-11 cells; assay: Cell proliferation assay (CellTiter-Glo), MV-4-11; format: cell-based, human; conditions: MV-4-11 (MLL-AF4), 4 days incubation, read-out: Cell antiproliferation assay MV-4-11 IC50
How it was run: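 Antiproliferative activity by CellTiter-Glo luminescence; MV4-11 (MLL-AF4) in IMDM/10% FBS, 4 days; MOLM13 (MLL-AF9) in RPMI1640/20% FBS, 12 days; OCI-AML3 (NPM1c) in RPMI1640/20% FBS, 5 days; HL-60 (MLL wild-type control) in IMDM/20% FBS, 4 days. Compounds 4-fold serial from 2 mM stock, 200-fold final dilution; 37 °C, 5% CO2.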

[3] = tested on: OCI-AML3 cells; assay: Cell proliferation assay (CellTiter-Glo), OCI-AML3; format: cell-based, human; conditions: OCI-AML3 (NPM1c mutation), 5 days incubation, read-out: Cell antiproliferation assay OCI-AML3 IC50
Protocol: (§1) The antiproliferative activity of test compounds was assessed in human leukemia cell lines. The cell line MV4-11, MOLM13 and OCI-AML3, which expresses the MLL fusion protein MLL-AF4, MLL-AF9 and carry the NPM1c gene mutation, respectively, were tested. HL-60 was used as a control cell line containing two MLL wildtype alleles in order to exclude compounds that display general cytotoxic effect. MV4-11 cells were cultured in IMDM supplemented with 10% FBS, MOLM13 and OCI-AML3 cells were cultured in RPMI1640 supplemented with 20% FBS, and HL-60 cells were cultured in IMDM supplemented with 20% FBS. Corresponding cells (MV4-11, MOLM13, OCI-AML3 or HL-60 cell line) were seeded in 100 uL medium per well in 96-well plate (white wall with clear bottom, tissue culture treated, Corning, Cat. No. CLS3903; Lot.No. 30419025). Plates were placed in the CO2 incubator overnight. Compounds solution (2 mM starting, 4-fold serial dilution) were prepared and added to the wells containing 100 μL of the culture medium with HPD300 according to the plate map and centrifuge at 1000 rpm for 1 minutes (200-fold dilution totally). MV4-11, MOLM13, OCI-AML3 and HL-60 cells were incubated with the compounds for 4, 12, 5 and 4 days, respectively, under 5% CO2 at 37° C., respectively. 100 μL of CellTiter-Glo reagent (Promega, Cat. No. G7573, Lot. No. 0000416710) was added to the assay plate by Multidrop Combi instrument, contents were mixed for 10 minutes on an orbital shaker to induce cell lysis. After incubation at room temperature for 10 mins, clear bottom with white back seal was pasted and luminescence with Envision was read.

[4] = tested on: MOLM13 cells; assay: Cell proliferation assay (CellTiter-Glo), MOLM13; format: cell-based, human; conditions: MOLM13 (MLL-AF9), 12 days incubation, read-out: Cell antiproliferation assay MOLM13 IC50
Protocol: as §1

[5] = tested on: HL-60 cells; assay: Cell proliferation assay (CellTiter-Glo), HL-60 control line; format: cell-based, human; conditions: 4 days incubation; for IC50: HL-60 control line (MLL wildtype), read-out: Cell antiproliferation assay HL-60 IC50
Protocol: as §1

[6] = Liver microsome stability study; format: in vitro ADME; conditions: human liver microsomes 0.5 mg/mL, 1 μM compound, NADPH, 37° C.
Protocol: Studies were carried out in liver microsomes (Corning, 0.5 mg/mL). Stock solutions were prepared at 10 mM in DMSO for the test compounds. Aliquots of the stock solutions were diluted to 0.5 mM with acetonitrile, and then further diluted upon the addition of liver microsomes/buffer to 1.5 μM. An aliquot of 30 μL of 1.5 μM solutions was mixed with 15 μL of 6 mM NADPH and the final concentration of NADPH was 2 mM, which had been pre-warmed to 37° C. Test compounds and Ketanserin final concentrations were 1 μM. The plates were kept in a 37° C. water bath for the duration of the experiment. At each time point (0, 5, 15, 30, 45 minutes), 135 μL of acetonitrile was added into corresponding wells. After the final time point was quenched by acetonitrile, the assay plates were shaken at the vibrator (IKA, MTS 2/4) for 10 min (600 rpm/min) and then centrifuged at 5,594 g for 15 min (Thermo Multifuge×3R). Aliquots of the supernatant were taken, diluted 1:1 into distilled water, and analyzed by LC-MS/MS. The peak area response ratio to internal standard (PARR) of the compounds at 5, 15, 30, 45 minutes was compared to the PARR at time 0 to determine the percent of test compound remaining at each time point. Half-lives were calculated using Excel software, fitting to a single-phase exponential decay equation.

[7] = biological target: T2, hERG potassium channel (Homo sapiens, UniProt Q12809); assay: hERG inhibition study (Qpatch, CHO-hERG cells); format: cell-based; conditions: highest test concentration 40 μM
T2 construct: expressed in transfected cells; host or cells: CHO-hERG cells
Protocol: The inhibition effects of the test compounds on hERG were carried out in CHO-hERG cells (cell density: 21.5×10˜6/mL). 10 μL compound mother liquor was added to 20 μL DMSO solution, and then continuously diluted to 6 concentrations by 3-fold. The compound solution (4 uL) of six different concentrations were added to the extracellular solution (996 uL) and diluted to the final concentration to be tested (250-fold dilution totally). The highest test concentration was 40.00 μM, followed by […], 13.3, 4.4, 1.48, 0.49 and 0.16 μM. […] The high impedance sealing of single cell and the formation of whole cell model were all completed automatically by Qpatch instrument.

T2 sequence (Q12809 whole entry): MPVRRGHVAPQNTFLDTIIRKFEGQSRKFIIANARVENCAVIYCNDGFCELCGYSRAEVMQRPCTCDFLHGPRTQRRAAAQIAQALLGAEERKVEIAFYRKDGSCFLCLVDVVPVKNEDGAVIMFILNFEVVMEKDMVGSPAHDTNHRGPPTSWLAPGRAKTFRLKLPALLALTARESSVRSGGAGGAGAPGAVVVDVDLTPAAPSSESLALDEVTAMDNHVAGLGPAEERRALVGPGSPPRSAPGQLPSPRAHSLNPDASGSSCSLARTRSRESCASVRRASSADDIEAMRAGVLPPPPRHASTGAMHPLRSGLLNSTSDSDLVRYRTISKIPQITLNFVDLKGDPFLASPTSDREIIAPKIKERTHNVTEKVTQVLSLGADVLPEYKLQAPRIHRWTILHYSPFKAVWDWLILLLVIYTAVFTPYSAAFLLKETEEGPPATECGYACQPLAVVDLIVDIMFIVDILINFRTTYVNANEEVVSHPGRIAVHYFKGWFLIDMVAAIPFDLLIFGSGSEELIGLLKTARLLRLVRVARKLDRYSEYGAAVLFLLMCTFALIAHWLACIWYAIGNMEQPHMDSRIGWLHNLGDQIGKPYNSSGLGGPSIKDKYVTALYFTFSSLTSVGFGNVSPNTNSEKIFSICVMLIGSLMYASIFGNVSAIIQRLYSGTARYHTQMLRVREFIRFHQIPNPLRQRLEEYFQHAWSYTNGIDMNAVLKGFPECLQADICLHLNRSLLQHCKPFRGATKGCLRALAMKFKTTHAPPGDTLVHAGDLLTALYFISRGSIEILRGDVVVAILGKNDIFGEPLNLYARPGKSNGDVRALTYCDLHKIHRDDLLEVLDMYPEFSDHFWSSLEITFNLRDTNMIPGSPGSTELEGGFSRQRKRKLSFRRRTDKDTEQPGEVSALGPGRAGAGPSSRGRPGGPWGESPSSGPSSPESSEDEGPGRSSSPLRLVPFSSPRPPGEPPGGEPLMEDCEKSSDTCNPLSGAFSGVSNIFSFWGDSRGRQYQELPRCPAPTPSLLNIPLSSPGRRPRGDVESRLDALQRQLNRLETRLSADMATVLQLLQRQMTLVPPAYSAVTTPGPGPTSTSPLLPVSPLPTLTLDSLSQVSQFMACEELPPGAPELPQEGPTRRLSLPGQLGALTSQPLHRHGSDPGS

Row | IC50 [1] | IC50 [2] | IC50 [3] | IC50 [4] | IC50 [5] | Human liver microsome T1/2 [6] | IC50 ([2]; Homo sapiens, MV4-11, 96 h) | IC50 ([3]; Homo sapiens, OCI-AML-3, 120 h) | IC50 ([4]; Homo sapiens, MOLM-13, 288 h) | IC50 ([5]; Homo sapiens, 96 h) | half-life at 1 μM ([6]; read-out: Human liver microsome T1/2) | Compound | HL-60 (Pct of inhibition at 10 μM) ([5]; HL-60 control line, 10 μM) | IC50 [7] | inhibition at 10 µM ([5]; Homo sapiens, 96 h, HL-60 control line, 10 μM, read-out: HL-60 (Pct of inhibition at 10 μM))
1 | 3.4 nM | 8 nM | 74.7 nM | 21.6 nM | 7970 nM | 0.2 h |  |  |  |  |  | CCN(C(=O)c1cc(F)ccc1Oc1cncnc1N1CC2(CCN(C[C@H]3CC[C@H](NS(=O)(=O)CC)CC3)CC2)C1)C(C)C [SNDX-5613, reference compound] | 98.9% | 9600 nM | 
2 | 2.3 nM |  |  |  |  |  | 14.2 nM | 186 nM | 61.9 nM | > 10000 nM | 2.65 h | CCN(C(=O)c1cc(F)ccc1Oc1nncnc1N1CC2(CCN(C(=O)[C@H]3NC[C@@H]4C[C@@H]43)CC2)C1)C(C)C [Example 55] |  | > 40000 nM | -5%
